How the values were obtained:
Type in all cases: in vivo
[1] = tested on: Japanese bulrush (Scirpus juncoides Roxb.); assay: Test Example 1: herbicidal effect by soil application to paddy field; settings: paddy field soil application; active ingredient 1,000 g per 1 hectare; wettable powder added dropwise to water surface the day after sowing; examined on the 21st day after application
Summary of the method: (§1)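 Plants were sown in flooded (3 cm) paddy soil and evaluated for herbicidal effect 21 days after soil application in a greenhouse.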

[2] = tested on: heartshape false pickerelweed (Monochoria vaginalis (Burm.f.) C.Presl); assay: as above; settings: paddy field soil application; active ingredient 1,000 g per 1 hectare; wettable powder added dropwise to water surface the day after sowing; examined on the 21st day after application
Summary of the method: as §1

[3] = tested on: early watergrass (Echinochloa oryzicola Vasing); assay: as above; settings: paddy field soil application; active ingredient 1,000 g per 1 hectare; wettable powder added dropwise to water surface the day after sowing; examined on the 21st day after application
Summary of the method: as §1

[4] = tested on: barnyardgrass (Echinochloa crus-galli (L.) P. Beauv. var. crus-galli); assay: Test Example 3: herbicidal effect by application to upland field (foliage treatment); settings: 14th day after application; for herbicidal effect, Barnyardgrass: foliage treatment, 1,000 g active ingredient per 1 hectare, greenhouse
Summary of the method: (§2)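 Plants were sown in field soil and raised in a greenhouse for two weeks before foliar spraying. A water-diluted wettable powder was applied at 1,000 g active ingredient per hectare in 1,000 liters per hectare. Herbicidal effect was scored on a standard scale 14 days later.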

[5] = tested on: velvetleaf (Abutilon theophrasti medicus); assay: as above; settings: 14th day after application; for herbicidal effect, Velvetleaf: foliage treatment, 1,000 g active ingredient per 1 hectare, greenhouse
Summary of the method: as §2

[6] = tested on: slender amaranth (Amaranthus viridis L.); assay: as above; settings: 14th day after application; for herbicidal effect, Slender Amaranth: foliage treatment, 1,000 g active ingredient per 1 hectare, greenhouse
Summary of the method: as §2

[7] = tested on: green foxtail (Setaria viridis (L.) P. Beauv.); assay: as above; settings: 14th day after application; for herbicidal effect, Green Foxtail: foliage treatment, 1,000 g active ingredient per 1 hectare, greenhouse
Summary of the method: as §2

[8] = tested on: barnyardgrass (Echinochloa crus-galli (L.) P. Beauv. var. crus-galli); assay: Test Example 2: herbicidal effect by soil application to upland field; settings: soil surface spray, upland field soil, 1,000 g active ingredient per hectare, 21st day after application
Summary of the method: (§3)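 Greenhouse pot assay with field soil. Freshly sown seeds were covered with soil, then the surface was sprayed with diluted wettable powder: 1,000 g a.i./ha, 1,000 L/ha. Herbicidal effect scored at day 21 by standard criteria.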

[9] = tested on: velvetleaf (Abutilon theophrasti medicus); assay: as above; settings: soil surface spray, upland field soil, 1,000 g active ingredient per hectare, 21st day after application
Summary of the method: as §3

[10] = tested on: slender amaranth (Amaranthus viridis L.); assay: as above; settings: soil surface spray, upland field soil, 1,000 g active ingredient per hectare, 21st day after application
Summary of the method: as §3

[11] = tested on: green foxtail (Setaria viridis (L.) P. Beauv.); assay: as above; settings: soil surface spray, upland field soil, 1,000 g active ingredient per hectare, 21st day after application
Summary of the method: as §3

[12] = foliage treatment, plants grown two weeks, 1,000 g active ingredient per hectare

| SMILES | herbicidal effect, Scirpus juncoides Roxb. [1] | herbicidal effect, Monochoria vaginalis (Burm. f.) C. Presl [2] | herbicidal effect, Echinochloa oryzicola Vasing [3] | herbicidal effect, Barnyardgrass [4] | herbicidal effect, Velvetleaf [5] | herbicidal effect, Slender Amaranth [6] | herbicidal effect, Green Foxtail [7] | herbicidal effect (index), Barnyardgrass [8] | herbicidal effect (index), Velvetleaf [9] | herbicidal effect (index), Slender Amaranth [10] | herbicidal effect (index), Green Foxtail [11] | herbicidal effect (index), Barnyardgrass [4, 12] | herbicidal effect (index), Velvetleaf [5, 12] | herbicidal effect (index), Slender Amaranth [6, 12] | herbicidal effect (index), Green Foxtail [7, 12] |
| --- | --- | --- | --- | --- | --- | --- | --- | --- | --- | --- | --- | --- | --- | --- | --- |
| CCCn1c(C(F)(F)F)c(C)cc(C(=O)C2=C(O)CCCC2=O)c1=O [I-215] | 5 (90% or more of herbicidal effect and crop phytotoxicity) | 5 (90% or more of herbicidal effect and crop phytotoxicity) | 5 (90% or more of herbicidal effect and crop phytotoxicity) | 5 (90% or more of herbicidal effect and crop phytotoxicity) | 5 (90% or more of herbicidal effect and crop phytotoxicity) | 5 (90% or more of herbicidal effect and crop phytotoxicity) | 5 (90% or more of herbicidal effect and crop phytotoxicity) | 5 (90% or more of herbicidal effect and crop phytotoxicity) | 5 (90% or more of herbicidal effect and crop phytotoxicity) | 5 (90% or more of herbicidal effect and crop phytotoxicity) | 5 (90% or more of herbicidal effect and crop phytotoxicity) |  |  |  |  |
| CCSCn1c(C(F)(F)F)ccc(C(=O)C2=C(O)CCCC2=O)c1=O [I-48] | 5 (90% or more of herbicidal effect and crop phytotoxicity) | 5 (90% or more of herbicidal effect and crop phytotoxicity) | 5 (90% or more of herbicidal effect and crop phytotoxicity) |  |  |  |  | 5 (90% or more of herbicidal effect and crop phytotoxicity) | 5 (90% or more of herbicidal effect and crop phytotoxicity) | 5 (90% or more of herbicidal effect and crop phytotoxicity) | 4 (70 to less than 90% of herbicidal effect and crop phytotoxicity) | 5 (90% or more of herbicidal effect and crop phytotoxicity) | 5 (90% or more of herbicidal effect and crop phytotoxicity) | 5 (90% or more of herbicidal effect and crop phytotoxicity) | 5 (90% or more of herbicidal effect and crop phytotoxicity) |
| CCn1ncc(C(=O)c2ccc(C(F)(F)F)n(CCOCCOC)c2=O)c1O [IV-203] | 5 (90% or more of herbicidal effect and crop phytotoxicity) | 5 (90% or more of herbicidal effect and crop phytotoxicity) | 5 (90% or more of herbicidal effect and crop phytotoxicity) | 5 (90% or more of herbicidal effect and crop phytotoxicity) | 5 (90% or more of herbicidal effect and crop phytotoxicity) | 5 (90% or more of herbicidal effect and crop phytotoxicity) | 5 (90% or more of herbicidal effect and crop phytotoxicity) | 5 (90% or more of herbicidal effect and crop phytotoxicity) | 5 (90% or more of herbicidal effect and crop phytotoxicity) | 5 (90% or more of herbicidal effect and crop phytotoxicity) | 5 (90% or more of herbicidal effect and crop phytotoxicity) |  |  |  |  |
